Structures can show the parent of a compound that is named as a salt.

Assay [1] has as its target rabbit platelets (Oryctolagus cuniculus, UniProt G1TEI7). Description: in vitro platelet agglutination inhibition test (PAF-induced). The settings on record: rabbit platelet-rich plasma, PAF final concentration 10 ng/ml, 37°C; read-out: PAF-Induced Platelet Aggregation IC50 (converted). The class given is cell-based.
Description: To determine the PAF-antagonizing property of the compounds, the PAF-induced agglutination of rabbit platelets in vitro is utilized. To obtain platelet-rich plasma (PRP), venous blood is taken from rabbit auricular vein into a plastic centrifugal tube containing 1.0% sodium citrate solution. The ratio of sodium citrate solution to blood is 1:10. The obtained citrate-containing blood is centrifuged at 70 x g (625 rpm) at room temperature for 20 minutes and the PRP in the upper layer is transferred to another plastic tube. The remaining lower layer is further centrifuged at 1500 x g (2800 rpm) for 10 minutes and the platelet poor plasma (PPP) in the upper layer is recovered. The platelet agglutination is measured by using aggregometer commercially available from Niko Bioscience, Inc. An aliquote of the PRP is poured into a cubette for measurement. Immediately thereafter, aspirin, creatinin phosphate and creatinin phosphokinase are added to final concentrations of 0.1 mM, 7 mM and 45 U/ml, respectively. Then a solution of a test compound is added and the resulting mixture is stirred at 37°C for 2 minutes. To the resultant, PAF (final concentration: 10 ng/ml) is added to induce platelet aggregation. The platelet aggregation rate is calculated from the relative maximum value in each aggregation curve taking the transmittance of PPP as the maximum aggregation (100% aggregation). Using the aggregation rate when physiological saline was added as a control, the inhibition rate which was the ratio of the aggregation rate when the test compound was added to the control was calculated and the IC50 values were determined by interpolation.
In assay [2] the target is T1, PAF receptor (Oryctolagus cuniculus, UniProt G1TEI7).
T1 construct: Cell membrane fraction of rabbit platelets was prepared; from tissue; host or cells: rabbit platelets (cell membrane fraction)
Description: Binding test using [3H]-PAF (PAF receptor binding test). As to conditions: rabbit platelet membrane fraction, [3H]-PAF 0.4 nM, 25°C, 60 minutes; read-out: Receptor Binding Inhibition IC50 (converted). On the set-up: species or system rabbit.
Description: Binding Test Using [^3H]-PAF (PAF receptor binding test)
Cell membrane fraction of rabbit platelets was prepared in accordance with the method by Hwang et al (Biochemistry; 22; 4756, (1983)). In 10 mM Tris buffer containing 0.25% bovine serum albumin, 50 mg of this membrane fraction was suspended and tritium-labelled PAF [^3H]-PAF; 0.4 nM) and a test compound were added thereto. After incubating the resulting mixture at 25°C for 60 minutes, the mixture was subjected to filtration through a filter paper made of glass fibers. The filter paper was washed with cold Tris buffer three times and then transferred to a vial. A scintillator was added thereto and the dose of radioactivity was measured with a liquid scintillation counter. The inhibition rate (binding ability) of the test compound was calculated according to the following equation and IC50 values were determined by interpolation. Inhibition Rate (%) = {1 - [((A - B))/((C - B))]} x 100 [formula] (wherein A represents amount bound in the presence of the compound, B represents amount bound by non-specific binding which is the dose of [^3H]-PAF bound radioactivity in the presence of 1 µM of PAF, and C represents total amount bound which is the dose of [^3H]-PAF bound radioactivity.
As a control agent, WEB2086 (Japanese Laid-open Patent Application (Kokai) No. 65-176591) disclosed as a PAF-antagonist was used.

Sequence of rabbit platelets (G1TEI7 1-342): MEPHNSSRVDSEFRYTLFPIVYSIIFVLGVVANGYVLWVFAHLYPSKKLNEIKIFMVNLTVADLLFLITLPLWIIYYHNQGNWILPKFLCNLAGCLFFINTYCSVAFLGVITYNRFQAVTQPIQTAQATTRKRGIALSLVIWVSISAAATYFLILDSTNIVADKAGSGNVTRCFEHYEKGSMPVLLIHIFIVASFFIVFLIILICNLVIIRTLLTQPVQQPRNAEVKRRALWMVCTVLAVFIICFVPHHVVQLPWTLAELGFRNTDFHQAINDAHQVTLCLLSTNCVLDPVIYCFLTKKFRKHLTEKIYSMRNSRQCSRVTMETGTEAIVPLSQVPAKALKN
T1 sequence (G1TEI7 1-342): as above

`Cc1nnc2n1-c1ccccc1N(CCCN1CCC(=C3c4ccccc4CCc4ccccc43)CC1)C2` [Compound 87, 4,5-dihydro-1-methyl-5-[3-[4-(10,11-dihydro-5H-dibenzo[a,d]cyclohepten-5-ylidene)piperidin-1-yl]propyl][1,2,4]triazolo[4,3-a] quinoxaline]: the figures for the IC50 in assay [1] and in assay [2] were 6180 nM and 199 nM, respectively.
The corresponding values for `Cc1cccc(C(=C2CCN(CCCN3Cc4nnc(C)n4-c4ccccc43)CC2)c2cccc(C)c2)c1` [Compound 147, 4,5-dihydro-1-methyl-5-[3-[4-[bis(3-tolyl)methylene]piperidin-1-yl]propyl] [1,2,4]triazolo[4,3,a]quinoxaline] are 173 nM and 67.5 nM.
Regarding `COc1ccccc1C(=C1CCN(CCCN2Cc3nnc(C)n3-c3ccccc32)CC1)c1ccccc1OC` [Compound 145, 4,5-dihydro-1-methyl-5-[3-[4-[bis(2-methoxyphenyl)methylene]piperidin-1-yl]propyl] [1,2,4]triazolo[4,3,a]quinoxaline], the results for the IC50 in assay [1] and in assay [2] were 1700 nM and 411 nM, respectively.
The corresponding values for `Cc1nnc2n1-c1ccccc1N(CCCN1CCC(=C(c3ccccc3)c3ccccc3)C1)C2` [Compound 85, 4,5-dihydro-1-methyl-5-[3-[3-(diphenylmethylene)pyrrolidin-1-yl]propyl][1,2,4]triazolo[4,3-a] quinoxaline] are 3030 nM and 238 nM.
In the same order, the values of `Cc1nnc2n1-c1ccccc1N(CCCN1CCC(=C(c3ccccc3)c3ccc4ccccc4c3)CC1)C2` [Compound 163, 4,5-dihydro-1-methyl-5-[3-[4-[(2-naphthyl)phenylmethylene]piperidin-1-yl]propyl] [1,2,4]triazolo[4,3,a]quinoxaline] are 609 nM and 342 nM.
Consider `COc1ccccc1N1CCN(CCCN2Cc3nnc(C)n3-c3ccccc32)CC1` [Compound 86, 4,5-dihydro-1-methyl-5-[3-[4-(2-methoxyphenyl)piperazin-1-yl]propyl][1,2,4]triazolo[4,3-a] quinoxaline], for which the IC50 is 5260 nM in assay [1] and 7170 nM in assay [2].
The corresponding values for `CCCc1nnc2n1-c1ccccc1N(CCCN1CCC(c3c[nH]c4ccccc34)CC1)C2` [Compound 53, 4,5-dihydro-1-propyl-5-[3-[4-(3-indolyl)piperidin-1-yl]propyl] [1,2,4]triazolo[4,3-a]quinoxaline] are 3960 nM and 3300 nM.
Turning to `Cc1nnc2n1-c1ccccc1N(CCCN1CCC(C(O)(c3cccs3)c3cccs3)CC1)C2` [Compound 127], the results for the IC50 in assay [1] and in assay [2] were 455 nM and 152 nM, respectively.
`Cc1nnc2n1-c1ccccc1N(CCCN1CCC(=C3c4ccccc4C=Cc4ccccc43)CC1)C2` [Compound 78, 4,5-dihydro-1-methyl-5-[3-[4-(5H-dibenzo[a,d]cyclohepten-5-ylidene)piperidin-1-yl]propyl][1,2,4]triazolo[4,3-a] quinoxaline]: the IC50 was 4800 nM in assay [1] and 118 nM in assay [2].
Regarding `Cc1cccc(C(=C2CCN(CCCN3Cc4nnc(C)n4-c4ccccc43)CC2)c2ccccc2)c1` [Compound 160, 4,5-dihydro-1-methyl-5-[3-[4-[phenyl(3-tolyl)methylene]piperidin-1-yl]propyl] [1,2,4]triazolo[4,3,a]quinoxaline], the IC50 is 145 nM in assay [1] and 198 nM in assay [2].
In the same order, the values of `Cc1nnc2n(CCCN3CCC(=C4c5ccccc5C=Cc5ccccc54)CC3)c3ccccc3n12` [Compound 206, 3-methyl-9-[3-[4-(5H-dibenzo[a,d]cyclohepten-5-ylidene)piperidin-1-yl]propyl]-9H-[1,2,4]triazolo[4,3-a]benzimidazole] are 4320 nM and 1810 nM.
The corresponding values for `Cc1cccc(C(O)(c2ccccc2)C2CCN(CCCN3Cc4nnc(C)n4-c4ccccc43)CC2)c1` (centres unmarked) [Compound 132, 4,5-dihydro-1-methyl-5-[3-[4-[hydroxyphenyl(3-tolyl)methyl]piperidin-1-yl]propyl] [1,2,4]triazolo[4,3-a]quinoxaline] are 70.9 nM and 51.2 nM.
In the same order, the values of `Cc1nnc2n1-c1ccccc1N(CCCN1CCC(C(O)(c3ccccc3)c3cccs3)CC1)C2` (centres unmarked) [Compound 129] are 340 nM and 340 nM.
Regarding `COc1cccc(C(=C2CCN(CCCN3Cc4nnc(C)n4-c4ccccc43)CC2)c2cccc(OC)c2)c1` [Compound 143, 4,5-dihydro-1-methyl-5-[3-[4-[bis(3-methoxyphenyl)methylene]piperidin-1-yl]propyl] [1,2,4]triazolo[4,3,a]quinoxaline], the IC50 is 411 nM in assay [1] and 74.7 nM in assay [2].
In the same order, the values of `Cc1nnc2n1-c1ccccc1N(CCCN1CCC(=C(c3ccccc3)c3ccc(C(F)(F)F)cc3)CC1)C2` [Compound 151, 4,5-dihydro-1-methyl-5-[3-[4-[[4-(trifluoromethyl)phenyl]phenylmethylene]piperidin-1-yl]propyl] [1,2,4]triazolo[4,3,a]quinoxaline] are 1400 nM and 110 nM.
Take `COc1ccc(C(O)(c2ccccc2)C2CCN(CCCN3Cc4nnc(C)n4-c4ccccc43)CC2)cc1OC` (centres unmarked) [Compound 130, 4,5-dihydro-1-methyl-5-[3-[4-[hydroxy(3,4-dimethoxyphenyl)phenylmethyl]piperidin-1-yl]propyl] [1,2,4]triazolo[4,3-a]quinoxaline]: the IC50 in assay [1] is 578 nM; in assay [2], 126 nM.
The corresponding values for `Cc1nnc2n1-c1ccc(Cl)cc1N(CCCN1CCC(c3c[nH]c4ccccc34)CC1)C2` [Compound 65, 7-chloro-4,5-dihydro-1-methyl-5-[3-[4-(3-indolyl)piperidin-1-yl]propyl][1,2,4]triazolo[4,3-a]quinoxaline] are 4340 nM and 10400 nM.
In the same order, the values of `Cc1nnc2n1-c1ccccc1N(CCCN1CCC(=C(c3ccco3)c3ccco3)CC1)C2` [Compound 161, 4,5-dihydro-1-methyl-5-[3-[4-[bis(2-furyl)methylene]piperidin-1-yl]propyl] [1,2,4]triazolo[4,3,a]quinoxaline] are 1190 nM and 351 nM.
`Cc1nnc2n1-c1ccccc1N(CCCN1CCC(=C(c3ccccc3)c3ccc(N(C)C)cc3)CC1)C2` [Compound 156, 4,5-dihydro-1-methyl-5-[3-[4-[(4-dimethylaminophenyl)phenyimethylene]piperidin-1-yl]propyl] [1,2,4]triazolo[4,3,a]quinoxaline]: the 50% inhibitory concentration (IC50) in assay [1] was 1120 nM; in assay [2], 55.9 nM.
The corresponding values for `COc1cccc(C(=C2CCN(CCCN3Cc4nnc(C)n4-c4ccccc43)CC2)c2ccccc2)c1` [Compound 140, 4,5-dihydro-1-methyl-5-[3-[4-[(3-methoxyphenyl)phenylmethylene]piperidin-1-yl]propyl] [1,2,4]triazolo[4,3,a]quinoxaline] are 475 nM and 11.9 nM.
In the same order, the values of `Cc1nnc2n1-c1ccccc1N(CCCN1CCC(=C(c3ccccc3)c3cccc(Cl)c3)CC1)C2` [Compound 154, 4,5-dihydro-1-methyl-5-[3-[4-[(3-chlorophenyl)phenylmethylene]piperidin-1-yl]propyl] [1,2,4]triazolo[4,3,a]quinoxaline] are 372 nM and 178 nM.
With `Cc1nnc2n(CCCN3CCC(=C(c4ccccc4)c4ccccc4)CC3)c3ccccc3n12` [Compound 201, 3-methyl-9-[3-[4-(diphenylmethylene)piperidin-1-yl]propyl]-9H-[1,2,4]triazolo[4,3-a]benzimidazole fumaric acid salt], the results for the IC50 in assay [1] and in assay [2] were 277 nM and 294 nM, respectively.
In the same order, the values of `Cc1nnc2n1-c1ccccc1N(CCCN1CCC(=C(c3ccccc3)c3ccc(Cl)cc3)CC1)C2` [Compound 149, 4,5-dihydro-1-methyl-5-[3-[4-[(4-chlorophenyl)phenylmethylene]piperidin-1-yl]propyl] [1,2,4]triazolo[4,3,a]quinoxaline] are 1080 nM and 206 nM.
Regarding `COc1cccc(C(O)(c2ccccc2)C2CCN(CCCN3Cc4nnc(C)n4-c4ccccc43)CC2)c1` (centres unmarked) [Compound 133, 4,5-dihydro-1-methyl-5-[3-[4-[hydroxy(3-methoxyphenyl)phenylmethyl]piperidin-1-yl]propyl] [1,2,4]triazolo[4,3-a]quinoxaline], the IC50 is 120 nM in assay [1] and 32.5 nM in assay [2].
On to `CCCc1nnc2n(CCCN3CCC(c4c[nH]c5ccccc45)CC3)c3ccccc3n12` [Compound 194, 3-propyl-9-[3-[4-(3-indolyl)piperidin-1-yl]propyl]-9H-[1,2,4]triazolo[4,3-a]benzimidazole fumaric acid salt], for which the IC50 in assay [1] is 80.8 nM; in assay [2], 1980 nM.
Regarding `Cc1nnc2n(CCCN3CCC(c4c[nH]c5ccccc45)CC3)c3cc(Cl)ccc3n12` [Compound 205, 3-methyl-7-chloro-9-[3-[4-(3-indolyl)piperidin-1-yl]propyl]-9H-[1,2,4]triazolo[4,3-a]benzimidazole], the IC50 in assay [1] was 5150 nM; in assay [2], 2910 nM.
In the same order, the values of `CCn1cc(C2CCN(CCCN3Cc4nnc(C)n4-c4ccccc43)CC2)c2ccccc21` [Compound 64, 4,5-dihydro-1-methyl-5-[3-[4-(1-ethyl-3-indolyl)piperidin-1-yl]propyl][1,2,4]triazolo[4,3-a] quinoxaline fumaric acid salt] are 2800 nM and 806 nM.
The corresponding values for `Cc1nnc2n(CCCN3CCC(OC(c4ccccc4)c4ccccc4)CC3)c3ccccc3n12` [Compound 200, 3-methyl-9-[3-[4-(diphenylmethoxy)piperidin-1-yl]propyl]-9H-[1,2,4]triazolo[4,3-a]benzimidazole fumaric acid salt] are 38.6 nM and 50.4 nM.

In general, IC50 refers to the concentration that gives 50% inhibition.

The values are drawn from patent EP0536419B1, “TRICYCLIC TRIAZOLE DERIVATIVES, PRODUCTION AND USE THEREOF” (TORAY INDUSTRIES, INC., priority 1991, dated 1992).
